Source: PMC6934184, “Selective DNA-PKcs inhibition extends the therapeutic index of localized radiotherapy and chemotherapy” (The Journal of Clinical Investigation, 2019)

Target: T1, KIT T670E (Homo sapiens, UniProt P10721, T670E)
T1 construct: purchased Thermo Fisher Scientific (Life Technologies) SelectScreen
Assay: SelectScreen LanthaScreen
Type: binding
Details: read-out: % displacement
Outline: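 NU5455 was profiled across the SelectScreen Broad panel of kinase activity and binding assays. Z'LYTE reactions such as CSF1R ran at apparent Km ATP, while the Adapta CAMK1 assay used ATP listed as 10. Values are given as percent.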

T1 sequence (P10721 26-976 T670E): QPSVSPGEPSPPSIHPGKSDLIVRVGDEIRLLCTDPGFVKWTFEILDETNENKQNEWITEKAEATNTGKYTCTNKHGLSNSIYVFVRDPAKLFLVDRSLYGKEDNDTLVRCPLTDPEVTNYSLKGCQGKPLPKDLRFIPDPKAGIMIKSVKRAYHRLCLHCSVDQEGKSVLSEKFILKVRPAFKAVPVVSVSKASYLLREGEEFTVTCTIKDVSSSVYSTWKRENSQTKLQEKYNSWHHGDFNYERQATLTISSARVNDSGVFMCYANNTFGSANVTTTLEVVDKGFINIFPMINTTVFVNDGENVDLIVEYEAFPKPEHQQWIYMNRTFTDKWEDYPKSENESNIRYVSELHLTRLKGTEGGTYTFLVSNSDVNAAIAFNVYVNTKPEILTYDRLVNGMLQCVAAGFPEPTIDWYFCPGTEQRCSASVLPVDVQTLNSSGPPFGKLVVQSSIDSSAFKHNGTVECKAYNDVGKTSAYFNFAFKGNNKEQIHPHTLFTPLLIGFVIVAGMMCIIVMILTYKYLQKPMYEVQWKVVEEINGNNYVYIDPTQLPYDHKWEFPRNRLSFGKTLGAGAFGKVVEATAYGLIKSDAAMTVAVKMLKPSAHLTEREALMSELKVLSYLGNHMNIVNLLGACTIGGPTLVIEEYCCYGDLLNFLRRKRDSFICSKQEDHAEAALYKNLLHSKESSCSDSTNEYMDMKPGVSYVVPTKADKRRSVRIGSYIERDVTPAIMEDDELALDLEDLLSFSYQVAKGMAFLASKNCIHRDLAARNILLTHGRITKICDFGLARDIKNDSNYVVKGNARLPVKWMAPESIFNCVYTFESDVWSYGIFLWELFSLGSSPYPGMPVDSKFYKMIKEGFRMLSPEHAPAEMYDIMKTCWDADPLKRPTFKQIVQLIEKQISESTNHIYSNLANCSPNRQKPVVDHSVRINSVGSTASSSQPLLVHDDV

Question: For CN(C(=O)CN1CCOCC1)c1ccc2sc3c(-c4cccc5c(=O)cc(N6CC7CCC(C6)O7)oc45)cccc3c2c1 [NU5455], which inhibition at 1 µM is on record?
Answer: The inhibition at 1 µM was -2.8%.
